According to patent publication US11559510B2, “Isoflavonoid composition with improved pharmacokinetics” (NOXOPHARM LIMITED, priority 2016, dated 2023):
Read-outs that look alike come from different tables or passages of the source.

Assay: Plasma pharmacokinetic studies of idronoxil in rats (rectal in cocoa butter vs intestinal in lipid emulsion)
Format: in vivo, Male Sprague-Dawley rats
Conditions: for Peak Area in rat plasma, Rat 2 / Peak Area in rat plasma, Rat 1 / Peak Area in rat plasma, Rat 3 / half-life / concentration at 0 h / concentration at 1 h / concentration at 2 h / concentration at 3 h / concentration at 4 h / concentration at 5 h / concentration at 6 h / concentration at 7 h / concentration at 8 h: 10 mg/kg; for half-life / concentration at 0 h / concentration at 1 h / concentration at 2 h / concentration at 3 h / concentration at 4 h / concentration at 5 h / concentration at 6 h / concentration at 7 h / concentration at 8 h: male, Sprague-Dawley, rat, plasma
Method: The objective of this study in rodents is to determine the plasma pharmacokinetics of idronoxil after rectal delivery and intestinal delivery in lipids (cocoa butter or emulsion).
Part (1); n=3 rats: Rectal administration of idronoxil in cocoa butter liquid formulation, collection of plasma.
Part (2); n=3 rats: Intestinal administration (intraduodenal infusion) of idronoxil in lipid formulation, collection of plasma.
3 mg idronoxil per rat (equivalent to 10 mg/kg idronoxil).
Preparation of lipid formulation for intestinal dosing: Briefly, 3 mg of idronoxil, 80 mg oleic acid and 50 mg Tween 80 were mixed in a glass vial as the lipid phase. An aqueous phase consisting of 5.6 mL phosphate buffered saline (PBS, pH 7.4) was subsequently added to the lipid phase and the formulation emulsified by ultrasonication with a Misonix XL 2020 ultrasonic processor equipped with a 3.2-mm microprobe tip running at an amplitude of 240 μm and a frequency of 20 kHz for 4 min at room temperature.
Dose administration: The lipid formulations were infused into the duodenum of the rats at 2.8 mL/h for 2 h. After that, normal saline was infused into the duodenum at 2.8 mL/h for the remainder of the experiment to hydrate the animals.
Preparation of cocoa butter formulation for rectal dosing: Briefly, 100 mg of the cocoa butter was weighed into a homogenizer glass tube and melted at 32 degrees Celsius. 3 mg of idronoxil was then added and the formulation mixed manually with the homogenizer.
Dose administration: The warmed/melted cocoa butter formulations were dosed into the rectum via placing the tip of a 3 cm plastic mouse oral gavage device attached to a 1 ml plastic syringe exactly 1 cm into the rectum. The formulation was dosed over 15 sec. After that, normal saline was infused into the duodenum at 2.8 mL/h for the remainder of the experiment to hydrate the animals.
Male Sprague-Dawley rats (n=3 per group, body weight 300±40 g) were used in the study. Each animal was fasted overnight prior to surgical cannulation of the carotid artery and duodenum.
The rats were anaesthetized (using isoflurane anesthesia), placed on a heated pad at 37° C. and cannulas were inserted into the duodenum (for dosing of lipid formulation and rehydration) and carotid artery (for blood collection).
Post-surgery, rats were re-hydrated for 0.5 h via intraduodenal infusion of normal saline at 2.8 mL/h prior to dosing via intraduodenal or rectal route.
Plasma collection: Plasma samples were collected for 8 h into Eppendorf tubes containing 5 μL of 1,000 IU/mL heparin. Aliquots (20 μL) of each hourly collected samples were transferred into labelled 1.5 mL Eppendorf tubes. Aliquoted and original bulk samples were stored at −20° C. until analysis.
Sample analysis: Plasma concentrations of idronoxil were measured by the HMST-lab using a validated HPLC-MS/MS method. Briefly, LC-MS analysis was performed on a Shimadzu 8050 triple quadrupole mass spectrometer coupled with a Shimadzu Nexera X2 UHPLC. MS analysis was conducted in positive mode electrospray ionisation and quantitation of the analytes performed in MRM mode. The column employed was a Phenomenex Kinetex EVO C18 column (2.6 μm particle size, 50×2.1 mm i.d.) equipped with a Phenomenex Security Guard column with C18 packing material. The column was maintained at 40-C. The mobile phase consisted of 0.2% formic acid in water (Mobile Phase A) and 100% acetonitrile (Mobile Phase B). Separations were conducted using a flow rate of 0.4 mL/min and an injection volume of 6 μL. Samples were controlled in the autosampler at a temperature of 10° C.
Non-compartmental pharmacokinetic (PK) analysis: The elimination rate constant (slope), half-life (i.e., 0.693/k), and mean residence time (MRT) were calculated using excel. The area under the plasma-concentration time curves from time zero to 8 h (AUC0-8 h) were calculated using the trapezoid rule to the last measured time point.

[1] = Intestinal administration of idronoxil, lipid emulsion, 1 hrs
[2] = Intestinal administration of idronoxil, lipid emulsion, 2 hrs
[3] = Intestinal administration of idronoxil, lipid emulsion, 3 hrs
[4] = Intestinal administration of idronoxil, lipid emulsion, 4 hrs
[5] = Intestinal administration of idronoxil, lipid emulsion, 5 hrs
[6] = Intestinal administration of idronoxil, lipid emulsion, 6 hrs
[7] = Intestinal administration of idronoxil, lipid emulsion, 7 hrs
[8] = Intestinal administration of idronoxil, lipid emulsion, 8 hrs
[9] = Rectal administration of idronoxil, cocoa butter, 1 hrs
[10] = Rectal administration of idronoxil, cocoa butter, 2 hrs
[11] = Rectal administration of idronoxil, cocoa butter, 3 hrs
[12] = Rectal administration of idronoxil, cocoa butter, 4 hrs
[13] = Rectal administration of idronoxil, cocoa butter, 5 hrs
[14] = Rectal administration of idronoxil, cocoa butter, 6 hrs
[15] = Rectal administration of idronoxil, cocoa butter, 7 hrs
[16] = Rectal administration of idronoxil, cocoa butter, 8 hrs
[17] = intestinally-dosed rats compared with rectally-dosed rats
[18] = oral delivery (intestinal delivery model)
[19] = other: intraduodenal infusion, Intestinal delivery (intraduodenal infusion), lipid emulsion, read-out: Idronoxil Plasma Concentration Mean
[20] = other: intraduodenal infusion, Intestinal delivery (intraduodenal infusion), lipid emulsion, read-out: Idronoxil Plasma Concentration Rat 2
[21] = other: intraduodenal infusion, Intestinal delivery (intraduodenal infusion), lipid emulsion, read-out: Idronoxil Plasma Concentration Rat 1
[22] = other: intraduodenal infusion, Intestinal delivery (intraduodenal infusion), lipid emulsion, read-out: Idronoxil Plasma Concentration Rat 3
[23] = other: rectal, Rectal delivery, cocoa butter, read-out: Idronoxil Plasma Concentration Mean
[24] = other: rectal, Rectal delivery, cocoa butter, read-out: Idronoxil Plasma Concentration Rat 1
[25] = other: rectal, Rectal delivery, cocoa butter, read-out: Idronoxil Plasma Concentration Rat 2
[26] = other: rectal, Rectal delivery, cocoa butter, read-out: Idronoxil Plasma Concentration Rat 3

## Oc1ccc(C2=Cc3ccc(O)cc3OC2)cc1 [Idronoxil, 2H-1-Benzopyran-7-0,1,3-(4-hydroxyphenyl)]
Intestinal administration of idronoxil, lipid emulsion, 0 hrs
  Peak Area in rat plasma, Rat 2: 62,126
[1]
  Peak Area in rat plasma, Rat 1: 236,465
  Peak Area in rat plasma, Rat 2: 184,114
  Peak Area in rat plasma, Rat 3: 222,037
[2]
  Peak Area in rat plasma, Rat 1: 335,894
  Peak Area in rat plasma, Rat 2: 238,289
  Peak Area in rat plasma, Rat 3: 237,900
[3]
  Peak Area in rat plasma, Rat 1: 34,094
  Peak Area in rat plasma, Rat 2: 71,267
  Peak Area in rat plasma, Rat 3: 32,152
[4]
  Peak Area in rat plasma, Rat 1: 25,198
  Peak Area in rat plasma, Rat 2: 14,571
  Peak Area in rat plasma, Rat 3: 13,053
[5]
  Peak Area in rat plasma, Rat 1: 26,342
  Peak Area in rat plasma, Rat 2: 10,183
  Peak Area in rat plasma, Rat 3: 13,297
[6]
  Peak Area in rat plasma, Rat 1: 6,108
  Peak Area in rat plasma, Rat 2: 8,531
  Peak Area in rat plasma, Rat 3: 17,321
[7]
  Peak Area in rat plasma, Rat 1: 8,023
  Peak Area in rat plasma, Rat 2: 14,276
  Peak Area in rat plasma, Rat 3: 8,371
[8]
  Peak Area in rat plasma, Rat 1: 13,012
  Peak Area in rat plasma, Rat 2: 9,110
  Peak Area in rat plasma, Rat 3: 8,020
[9]
  Peak Area in rat plasma, Rat 1: 57,590
  Peak Area in rat plasma, Rat 2: 213,825
  Peak Area in rat plasma, Rat 3: 46,167
[10]
  Peak Area in rat plasma, Rat 1: 37,493
  Peak Area in rat plasma, Rat 2: 179,554
  Peak Area in rat plasma, Rat 3: 50,847
[11]
  Peak Area in rat plasma, Rat 1: 37,603
  Peak Area in rat plasma, Rat 2: 152,537
  Peak Area in rat plasma, Rat 3: 45,812
[12]
  Peak Area in rat plasma, Rat 1: 34,050
  Peak Area in rat plasma, Rat 2: 117,814
  Peak Area in rat plasma, Rat 3: 49,738
[13]
  Peak Area in rat plasma, Rat 1: 61,323
  Peak Area in rat plasma, Rat 2: 153,360
  Peak Area in rat plasma, Rat 3: 75,786
[14]
  Peak Area in rat plasma, Rat 1: 41,246
  Peak Area in rat plasma, Rat 2: 114,191
  Peak Area in rat plasma, Rat 3: 42,370
[15]
  Peak Area in rat plasma, Rat 1: 46,844
  Peak Area in rat plasma, Rat 2: 100,506
  Peak Area in rat plasma, Rat 3: 25,104
[16]
  Peak Area in rat plasma, Rat 1: 14,934
  Peak Area in rat plasma, Rat 2: 80,236
  Peak Area in rat plasma, Rat 3: 40,752
At 3 to 4 hours after administration
  amount of idronoxil observed in plasma, rectal relative to oral administration: 3 to 4 times
Idronoxil dosed orally (intestinal delivery model)
  time for which blood levels >20 ng/mL were achieved: about 3 hours
intestinally-dosed rats
  time from administration by which the bulk of the total exposure is completed: about 3 hours
[17]
  maximum concentration of free idronoxil: significantly greater
  proportion of drug metabolized by Phase 2 metabolism: considerably greater
[18]
  half-life: ~45 min
  time at which drug levels are sub-therapeutic: < 4 h
  time within which drug levels substantially fall: 2 to 3 h
Rectal idronoxil
  half-life: > 480 min
[19]
  concentration at 0 h: 33.8 ng/mL
  concentration at 1 h: 118 ng/mL
  concentration at 2 h: 158 ng/mL
  concentration at 3 h: 24.3 ng/mL
  concentration at 4 h: 9.57 ng/mL
  concentration at 5 h: 9.27 ng/mL
  concentration at 6 h: 4.79 ng/mL
  concentration at 7 h: 5.04 ng/mL
  concentration at 8 h: 5.14 ng/mL
[20]
  concentration at 0 h: 33.8 ng/mL
  concentration at 1 h: 114 ng/mL
  concentration at 2 h: 140 ng/mL
  concentration at 3 h: 38.2 ng/mL
  concentration at 4 h: 7.03 ng/mL
  concentration at 5 h: 4.46 ng/mL
  concentration at 6 h: 3.79 ng/mL
  concentration at 7 h: 6.75 ng/mL
  concentration at 8 h: 4.23 ng/mL
[21]
  concentration at 1 h: 114 ng/mL
  concentration at 2 h: 200 ng/mL
  concentration at 3 h: 17.8 ng/mL
  concentration at 4 h: 16.1 ng/mL
  concentration at 5 h: 17.4 ng/mL
  concentration at 6 h: 2.86 ng/mL
  concentration at 7 h: 4.68 ng/mL
  concentration at 8 h: 7.83 ng/mL
[22]
  concentration at 1 h: 128 ng/mL
  concentration at 2 h: 136 ng/mL
  concentration at 3 h: 16.8 ng/mL
  concentration at 4 h: 5.62 ng/mL
  concentration at 5 h: 6 ng/mL
  concentration at 6 h: 7.72 ng/mL
  concentration at 7 h: 3.7 ng/mL
  concentration at 8 h: 3.37 ng/mL
[23]
  concentration at 0 h: 0 ng/mL
  concentration at 1 h: 49.4 ng/mL
  concentration at 2 h: 42.9 ng/mL
  concentration at 3 h: 37.3 ng/mL
  concentration at 4 h: 30.1 ng/mL
  concentration at 5 h: 46.3 ng/mL
  concentration at 6 h: 30.2 ng/mL
  concentration at 7 h: 25 ng/mL
  concentration at 8 h: 18.4 ng/mL
[24]
  concentration at 1 h: 26.7 ng/mL
  concentration at 2 h: 15.9 ng/mL
  concentration at 3 h: 15.9 ng/mL
  concentration at 4 h: 14.4 ng/mL
  concentration at 5 h: 27.9 ng/mL
  concentration at 6 h: 17.8 ng/mL
  concentration at 7 h: 20.6 ng/mL
  concentration at 8 h: 5.74 ng/mL
[25]
  concentration at 1 h: 96.5 ng/mL
  concentration at 2 h: 88.1 ng/mL
  concentration at 3 h: 74.2 ng/mL
  concentration at 4 h: 53.7 ng/mL
  concentration at 5 h: 71.4 ng/mL
  concentration at 6 h: 51.3 ng/mL
  concentration at 7 h: 43 ng/mL
  concentration at 8 h: 33.4 ng/mL
[26]
  concentration at 1 h: 24.9 ng/mL
  concentration at 2 h: 24.7 ng/mL
  concentration at 3 h: 21.8 ng/mL
  concentration at 4 h: 22.3 ng/mL
  concentration at 5 h: 39.5 ng/mL
  concentration at 6 h: 21.6 ng/mL
  concentration at 7 h: 11.4 ng/mL
  concentration at 8 h: 16.1 ng/mL
rats, 10 mg/kg body weight, single rectal administration, up to 8 hours
  plasma concentration: 35 to 40 ng/mL
Rectal delivery
  time for which therapeutic levels of free idronoxil were maintained in the blood: at least 8 hours
Rectal vs oral
  half-life, rectal relative to oral idronoxil: at least 5 times
rectally-dosed rats
  time for which idronoxil levels remain almost constant (steady-state levels) post administration: at least 8 hours
